Measured values taken from US20250163104A1, “MACROCYCLIC IMMUNOMODULATORS” (priority 2021, published 2025).
Where a SMILES comes first, the peptide text is derived from it. Bridges are numbered along the chain shown (N, C = ends). [ ]: non-standard residue; d: D form. The star is where a group is joined. ξ: configuration not given here. Phe(4-COOH) = N[C@@H](Cc1ccc(C(=O)O)cc1)C(=O)O; Bip = N[C@@H](Cc1ccc(-c2ccccc2)cc1)C(=O)O; Phe(3-Me) = Cc1cccc(C[C@H](N)C(=O)O)c1; Val(3-OH) = CC(C)(O)[C@H](N)C(=O)O; 4Pal = N[C@@H](Cc1ccncc1)C(=O)O; Cha = N[C@@H](CC1CCCCC1)C(=O)O; Ile(3ξ) = CCC(C)[C@H](N)C(=O)O; Carboxymethyl = O=C(O)C*; Orn = NCCC[C@H](N)C(=O)O; Pra = C#CC[C@H](N)C(=O)O; Dab = NCC[C@H](N)C(=O)O; Dap = NC[C@H](N)C(=O)O

Molecular target: T1, human PD-1 / PD-L1-Ig binding on Jurkat cell line over-expressing human PD-1 (Jurkat-PD-1) (Homo sapiens, UniProt Q15116)
T1 construct: expressed in transfected cells; host or cells: Jurkat
T1 sequence (Q15116 25-288): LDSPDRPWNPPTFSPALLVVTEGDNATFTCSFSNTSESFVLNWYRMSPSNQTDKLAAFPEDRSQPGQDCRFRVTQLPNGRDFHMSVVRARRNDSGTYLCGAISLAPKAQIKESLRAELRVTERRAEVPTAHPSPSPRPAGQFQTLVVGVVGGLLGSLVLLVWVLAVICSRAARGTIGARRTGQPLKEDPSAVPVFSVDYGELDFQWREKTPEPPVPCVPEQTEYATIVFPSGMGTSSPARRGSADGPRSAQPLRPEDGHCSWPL
Test: Jurkat-PD-1 Cell Binding High-Content Screening Assay (CBA)
Format: cell-based
Conditions: Jurkat-PD-1 cells, PE-labeled PD-L1-Ig 20 nM final; read-out: Jurkat HPD1_PDL1 IC50
Procedure, shortened: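 PE-PD-L1-Ig 20 nM final; cells in DMEM/10% FCS; cpd pre-incubation 2 h, 37° C; ligand 1 h; PFA fix + Hoechst 33342; high-content imaging read-out.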

| IC50 [nM] | Compound |
| --- | --- |
| 19.3 | C#CC[C@H](NC(=O)CNC(=O)[C@@H]1CSCC(=O)N[C@@H](CN)C(=O)N[C@@H](Cc2ccc(OCC(=O)O)cc2)C(=O)N[C@@H](CC(=O)O)C(=O)N[C@@H](Cc2cccc(C)c2)C(=O)N[C@@H](Cc2ccc(OCC(=O)O)cc2)C(=O)N[C@@H](Cc2ccc(-c3ccccc3)cc2)C(=O)N[C@@H](Cc2ccc(OCC(=O)O)cc2)C(=O)N[C@@H](CCCN)C(=O)N[C@H](CC(C)C)C(=O)N[C@@H](CCN)C(=O)N[C@@H](CC2CCCCC2)C(=O)N[C@@H](C(C)(C)O)C(=O)N[C@@H](CO)C(=O)N1)C(N)=O [Compound 2321] ({CH2CO}-[Dap]Y(Carboxymethyl)D[Phe(3-Me)]Y(Carboxymethyl)[Bip]Y(Carboxymethyl)[Orn][dL][Dab][Cha][Val(3-OH)]SCG[Pra]-NH2; thioether N-14) |
| 76.8 | C#CC[C@H](NC(=O)CNC(=O)[C@@H]1CSCC(=O)N[C@@H](CCN)C(=O)N[C@@H](Cc2ccc(OCC(=O)O)cc2)C(=O)N[C@@H](CC(=O)O)C(=O)N[C@@H](Cc2c[nH]c3ccccc23)C(=O)N[C@@H](C(C)C)C(=O)N[C@@H](Cc2ccc(-c3ccccc3)cc2)C(=O)N[C@@H](C(C)CC)C(=O)N[C@@H](CCCN)C(=O)N[C@H](CC(C)C)C(=O)N[C@@H](CCN)C(=O)N[C@@H](CC2CCCCC2)C(=O)N[C@@H](C(C)(C)O)C(=O)N[C@@H](CO)C(=O)N1)C(=O)O (stereo partly drawn) [Compound 2322] ({CH2CO}-[Dab]Y(Carboxymethyl)DWV[Bip][Ile(3ξ)][Orn][dL][Dab][Cha][Val(3-OH)]SCG[Pra]-OH; thioether N-14) |
| 247 | C#CC[C@H](NC(=O)[C@H](CCN)NC(=O)[C@@H]1CSCC(=O)N[C@@H](Cc2ccncc2)C(=O)N[C@@H](Cc2ccc(C(=O)O)cc2)C(=O)N[C@@H](CC(=O)O)C(=O)N[C@@H](Cc2cccc(C)c2)C(=O)N[C@@H](Cc2ccc(OCC(=O)O)cc2)C(=O)N[C@@H](Cc2ccc(-c3ccccc3)cc2)C(=O)N[C@@H](Cc2ccc(OCC(=O)O)cc2)C(=O)N[C@@H](CCCN)C(=O)N[C@H](CC(C)C)C(=O)N[C@@H](CCN)C(=O)N[C@@H](CC2CCCCC2)C(=O)N[C@@H](C(C)(C)O)C(=O)N[C@@H](CO)C(=O)N1)C(=O)O [Compound 2324] ({CH2CO}-[4Pal][Phe(4-COOH)]D[Phe(3-Me)]Y(Carboxymethyl)[Bip]Y(Carboxymethyl)[Orn][dL][Dab][Cha][Val(3-OH)]SC[Dab][Pra]-OH; thioether N-14) |
| 7.7 | C#CC[C@H](NC(=O)[C@@H](C)NC(=O)[C@@H]1CSCC(=O)N[C@@H](Cc2c[nH]cn2)C(=O)N[C@@H](Cc2ccc(OCC(=O)O)cc2)C(=O)N[C@@H](CC(=O)O)C(=O)N[C@@H](Cc2c[nH]c3ccccc23)C(=O)N[C@@H](C(C)C)C(=O)N[C@@H](Cc2ccc(-c3ccccc3)cc2)C(=O)N[C@@H](C(C)C)C(=O)N[C@@H](CCCN)C(=O)N[C@H](CC(C)C)C(=O)N[C@@H](CCN)C(=O)N[C@@H](CC2CCCCC2)C(=O)N[C@@H](C(C)(C)O)C(=O)N[C@@H](CO)C(=O)N1)C(N)=O [Compound 2326] ({CH2CO}-HY(Carboxymethyl)DWV[Bip]V[Orn][dL][Dab][Cha][Val(3-OH)]SC[dA][Pra]-NH2; thioether N-14) |

Further lines, the compound ahead of its results:

| Compound | IC50 [nM] |
| --- | --- |
| CCC(C)[C@@H]1NC(=O)[C@H](Cc2ccc(-c3ccccc3)cc2)NC(=O)[C@H](Cc2ccc(OCC(=O)O)cc2)NC(=O)[C@H](Cc2cccc(C)c2)NC(=O)[C@H](CC(=O)O)NC(=O)[C@H](Cc2ccc(C(=O)O)cc2)NC(=O)[C@H](Cc2ccncc2)NC(=O)CSC[C@@H](C(=O)N[C@@H](CC(N)=O)C(N)=O)NC(=O)[C@H]([C@@H](C)O)NC(=O)[C@H](C(C)C)NC(=O)[C@H](CC2CCCCC2)NC(=O)[C@H](CCN)NC(=O)[C@@H](CC(C)C)NC(=O)[C@H](CCCN)NC1=O (stereo partly drawn) [Compound 2315] ({CH2CO}-[4Pal][Phe(4-COOH)]D[Phe(3-Me)]Y(Carboxymethyl)[Bip][Ile(3ξ)][Orn][dL][Dab][Cha]VTCN-NH2; thioether N-14) | 33.1 |
| C#CC[C@H](NC(=O)[C@H](CCN)NC(=O)[C@@H]1CSCC(=O)N[C@@H](CN)C(=O)N[C@@H](Cc2ccc(OCC(=O)O)cc2)C(=O)N[C@@H](CC(=O)O)C(=O)N[C@@H](Cc2cccc(C)c2)C(=O)N[C@@H](Cc2ccc(OCC(=O)O)cc2)C(=O)N[C@@H](Cc2ccc(-c3ccccc3)cc2)C(=O)N[C@@H](Cc2ccc(OCC(=O)O)cc2)C(=O)N[C@@H](CCCN)C(=O)N[C@H](CC(C)C)C(=O)N[C@@H](CCN)C(=O)N[C@@H](CC2CCCCC2)C(=O)N[C@@H](C(C)(C)O)C(=O)N[C@@H](CO)C(=O)N1)C(=O)O [Compound 2316] ({CH2CO}-[Dap]Y(Carboxymethyl)D[Phe(3-Me)]Y(Carboxymethyl)[Bip]Y(Carboxymethyl)[Orn][dL][Dab][Cha][Val(3-OH)]SC[Dab][Pra]-OH; thioether N-14) | 6.5 |
| C#CC[C@H](NC(=O)[C@H](CCN)NC(=O)[C@@H]1CSCC(=O)N[C@@H](Cc2ccncc2)C(=O)N[C@@H](Cc2ccc(OCC(=O)O)cc2)C(=O)N[C@@H](CC(=O)O)C(=O)N[C@@H](Cc2cccc(C)c2)C(=O)N[C@@H](Cc2ccc(OCC(=O)O)cc2)C(=O)N[C@@H](Cc2ccc(-c3ccccc3)cc2)C(=O)N[C@@H](Cc2ccc(OCC(=O)O)cc2)C(=O)N[C@@H](CCCN)C(=O)N[C@H](CC(C)C)C(=O)N[C@@H](CCN)C(=O)N[C@@H](CC2CCCCC2)C(=O)N[C@@H](C(C)(C)O)C(=O)N[C@@H](CO)C(=O)N1)C(=O)O [Compound 2317] ({CH2CO}-[4Pal]Y(Carboxymethyl)D[Phe(3-Me)]Y(Carboxymethyl)[Bip]Y(Carboxymethyl)[Orn][dL][Dab][Cha][Val(3-OH)]SC[Dab][Pra]-OH; thioether N-14) | 576 |
| C#CC[C@H](NC(=O)[C@H](CCN)NC(=O)[C@@H]1CSCC(=O)N[C@@H](Cc2ccncc2)C(=O)N[C@@H](Cc2ccc(C(=O)O)cc2)C(=O)N[C@@H](CC(=O)O)C(=O)N[C@@H](Cc2cccc(C)c2)C(=O)N[C@@H](Cc2ccc(OCC(=O)O)cc2)C(=O)N[C@@H](Cc2ccc(-c3ccccc3)cc2)C(=O)N[C@@H](Cc2ccc(OCC(=O)O)cc2)C(=O)N[C@@H](CCCN)C(=O)N[C@H](CC(C)C)C(=O)N[C@@H](CCN)C(=O)N[C@@H](CC2CCCCC2)C(=O)N[C@@H](C(C)(C)O)C(=O)N[C@@H](CO)C(=O)N1)C(=O)O [Compound 2318] ({CH2CO}-[4Pal][Phe(4-COOH)]D[Phe(3-Me)]Y(Carboxymethyl)[Bip]Y(Carboxymethyl)[Orn][dL][Dab][Cha][Val(3-OH)]SC[Dab][Pra]-OH; thioether N-14) | 678 |
| C#CC[C@H](NC(=O)CNC(=O)[C@@H]1CSCC(=O)N[C@@H](CCN)C(=O)N[C@@H](Cc2ccc(OCC(=O)O)cc2)C(=O)N[C@@H](CC(=O)O)C(=O)N[C@@H](Cc2c[nH]c3ccccc23)C(=O)N[C@@H](C(C)C)C(=O)N[C@@H](Cc2ccc(-c3ccccc3)cc2)C(=O)N[C@@H](C(C)CC)C(=O)N[C@@H](CCCN)C(=O)N[C@H](CC(C)C)C(=O)N[C@@H](CCN)C(=O)N[C@@H](CC2CCCCC2)C(=O)N[C@@H](C(C)(C)O)C(=O)N[C@@H](CO)C(=O)N1)C(=O)O (stereo partly drawn) [Compound 2319] ({CH2CO}-[Dab]Y(Carboxymethyl)DWV[Bip][Ile(3ξ)][Orn][dL][Dab][Cha][Val(3-OH)]SCG[Pra]-OH; thioether N-14) | 24.3 |
